Laboratory results taken from ChEMBL document CHEMBL4825722, “Discovery of Potent Selective Nonzinc Binding Autotaxin Inhibitor BIO-32546” (ACS Med Chem Lett, 2021).
Values after ≈ are worked out from the molar mass of the structure shown.

Assays:
[1] = test system: Rattus norvegicus; experiment: Effect on Sprague-Dawley rat CFA inflammatory […] model assessed as reduction in 20:4 LPA level at 0.3 mg/kg after 6 hrs by LC-MS/MS analysis; type: functional; parameters: scale not given: the % may be the effect or the level left
[2] = Tmax in C57BL/6 mouse plasma at 10 mg/kg, po; type: ADME, organism-based
[3] = test system: Rattus norvegicus; experiment: Effect on Sprague-Dawley rat CFA inflammatory […] model assessed as reduction in 20:4 LPA level at 0.1 mg/kg, po after 6 hrs by LC-MS/MS analysis; type: functional; parameters: scale not given: the % may be the effect or the level left
[4] = Drug concentration in rat brain at 10 mg/kg, po after 4 hrs; type: ADME, organism-based; settings: read-out: Ct
[5] = target: Lysophosphatidic acid receptor 1 (Homo sapiens, UniProt Q92633); experiment: Inhibition of LPA1 (unknown origin)
[6] = target: T1, hERG (KCNH2) (Homo sapiens, UniProt Q12809); experiment: Inhibition of human ERG at 10 uM by automated patch-clamp assay relative to control
[7] = target: Lysophosphatidic acid receptor 5 (Homo sapiens, UniProt Q9H1C0); experiment: Inhibition of LPA5 (unknown origin)
[8] = target: T1, hERG (KCNH2); experiment: Inhibition of human ERG at 1 uM by automated patch-clamp assay relative to control
[9] = target: Voltage-gated inwardly rectifying potassium channel KCNH2 (Homo sapiens, UniProt Q12809); experiment: Inhibition of human ERG by automated patch-clamp assay
[10] = Half life in rat at 1.0 mg/kg, iv; type: ADME, organism-based; settings: in vivo
[11] = AUC (0 to 24 hrs) in C57BL/6 mouse plasma at 2.32 mg/kg; type: ADME, organism-based; parameters: time < 24 hr, dose 2.32 mg/kg
[12] = AUC (0 to 24 hrs) in C57BL/6 mouse plasma at 10 mg/kg, po; type: ADME, organism-based; parameters: time < 24 hr, route oral, dose 10 mg/kg
[13] = test system: Rattus norvegicus; experiment: Effect on Sprague-Dawley rat CFA inflammatory […] model assessed as reduction in 20:4 LPA level at 3 mg/kg, po after 6 hrs by LC-MS/MS analysis; type: functional; parameters: scale not given: the % may be the effect or the level left
[14] = Total brain to plasma concentration ratio in rat at 10 mg/kg, po measured after 4 hrs; type: ADME, organism-based; settings: brain and plasma, read-out: BPR
[15] = Volume of distribution at steady state in dog at 0.2 mg/kg, iv; type: ADME, organism-based, Canis lupus familiaris; settings: in vivo, read-out: Vdss
[16] = Cmax in rat at 10 mg/kg, po; type: ADME, organism-based; parameters: route oral, dose 10 mg/kg; settings: in vivo
[17] = Cmax in C57BL/6 mouse plasma at 2.32 mg/kg, iv; type: ADME, organism-based; parameters: route intravenous, dose 2.32 mg/kg
[18] = Solubility of the compound at pH 7.0 by shake flask method; settings: buffer
[19] = Oral bioavailability in C57BL/6 mouse at 10 mg/kg; type: ADME, organism-based; settings: in vivo
[20] = AUC (0 to 24 hrs) in C57BL/6 mouse brain at 10 mg/kg, po; type: ADME, organism-based; parameters: time < 24 hr, route oral, dose 10 mg/kg
[21] = Drug concentration in mouse brain at 10 mg/kg, po; type: ADME, organism-based; settings: in vivo
[22] = Cmax in C57BL/6 mouse brain at 10 mg/kg, po; type: ADME, organism-based; parameters: route oral, dose 10 mg/kg
[23] = target: Sphingosine 1-phosphate receptor 5 (Homo sapiens, UniProt Q9H228); experiment: Inhibition of S1P5 (unknown origin)
[24] = Tmax in C57BL/6 mouse brain at 2.32 mg/kg, iv; type: ADME, organism-based
[25] = Tmax in cynomolgus monkey at 1.0 mg/kg, po; type: ADME, organism-based, Macaca fascicularis; settings: in vivo
[26] = Cmax in C57BL/6 mouse plasma at 10 mg/kg, po; type: ADME, organism-based; parameters: route oral, dose 10 mg/kg
[27] = target: Autotaxin (Homo sapiens, UniProt Q13822); experiment: Inhibition of human ATX assessed as reduction in LPA formation using FS-3 as substrate preincubated for 30 mins followed by substrate addition and measured after 2 hrs by FRET assay
[28] = Unbound Cmax in C57BL/6 mouse brain at 10 mg/kg, po; type: ADME, organism-based; settings: in vivo
[29] = Protein binding in rat plasma assessed as unbound fraction; type: ADME, cell-free
[30] = Cmax in dog at 1.0 mg/kg, po; type: ADME, organism-based, Canis lupus familiaris; parameters: route oral, dose 1 mg/kg; settings: in vivo
[31] = Volume of distribution at steady state in cynomolgus monkey at 0.2 mg/kg, iv; type: ADME, organism-based, Macaca fascicularis; settings: in vivo, read-out: Vdss
[32] = Tmax in rat at 10 mg/kg, po; type: ADME, organism-based; settings: in vivo
[33] = Half life in dog at 0.2 mg/kg, iv; type: ADME, organism-based, Canis lupus familiaris; settings: in vivo
[34] = AUC (0 to 24 hrs) in rat at 1 mg/kg, iv; type: ADME, organism-based; parameters: time < 24 hr, route intravenous, dose 1 mg/kg; settings: in vivo
[35] = Cmax in cynomolgus monkey at 1.0 mg/kg, po; type: ADME, organism-based, Macaca fascicularis; parameters: route oral, dose 1 mg/kg; settings: in vivo
[36] = target: T2, Cytochrome P450 1A2 (Homo sapiens, UniProt P05177); experiment: Inhibition of CYP1A2 in human liver microsomes incubated for 15 mins in presence of NADPH by LC-MS/MS analysis; type: ADME
T2 sequence (P05177 whole entry): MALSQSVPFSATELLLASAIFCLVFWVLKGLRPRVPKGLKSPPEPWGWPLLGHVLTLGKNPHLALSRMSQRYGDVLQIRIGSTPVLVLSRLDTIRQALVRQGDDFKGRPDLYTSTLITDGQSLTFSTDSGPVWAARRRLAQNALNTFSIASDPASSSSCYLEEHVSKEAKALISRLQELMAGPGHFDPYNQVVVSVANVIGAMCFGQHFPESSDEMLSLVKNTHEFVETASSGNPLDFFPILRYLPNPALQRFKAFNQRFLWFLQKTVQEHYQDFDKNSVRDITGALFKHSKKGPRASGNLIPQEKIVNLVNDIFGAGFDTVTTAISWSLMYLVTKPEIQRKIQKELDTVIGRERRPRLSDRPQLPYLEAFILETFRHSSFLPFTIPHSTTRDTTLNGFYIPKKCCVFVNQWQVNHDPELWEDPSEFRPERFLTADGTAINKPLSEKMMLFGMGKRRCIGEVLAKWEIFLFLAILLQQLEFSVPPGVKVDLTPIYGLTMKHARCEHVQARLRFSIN

T1 sequence (Q12809 whole entry): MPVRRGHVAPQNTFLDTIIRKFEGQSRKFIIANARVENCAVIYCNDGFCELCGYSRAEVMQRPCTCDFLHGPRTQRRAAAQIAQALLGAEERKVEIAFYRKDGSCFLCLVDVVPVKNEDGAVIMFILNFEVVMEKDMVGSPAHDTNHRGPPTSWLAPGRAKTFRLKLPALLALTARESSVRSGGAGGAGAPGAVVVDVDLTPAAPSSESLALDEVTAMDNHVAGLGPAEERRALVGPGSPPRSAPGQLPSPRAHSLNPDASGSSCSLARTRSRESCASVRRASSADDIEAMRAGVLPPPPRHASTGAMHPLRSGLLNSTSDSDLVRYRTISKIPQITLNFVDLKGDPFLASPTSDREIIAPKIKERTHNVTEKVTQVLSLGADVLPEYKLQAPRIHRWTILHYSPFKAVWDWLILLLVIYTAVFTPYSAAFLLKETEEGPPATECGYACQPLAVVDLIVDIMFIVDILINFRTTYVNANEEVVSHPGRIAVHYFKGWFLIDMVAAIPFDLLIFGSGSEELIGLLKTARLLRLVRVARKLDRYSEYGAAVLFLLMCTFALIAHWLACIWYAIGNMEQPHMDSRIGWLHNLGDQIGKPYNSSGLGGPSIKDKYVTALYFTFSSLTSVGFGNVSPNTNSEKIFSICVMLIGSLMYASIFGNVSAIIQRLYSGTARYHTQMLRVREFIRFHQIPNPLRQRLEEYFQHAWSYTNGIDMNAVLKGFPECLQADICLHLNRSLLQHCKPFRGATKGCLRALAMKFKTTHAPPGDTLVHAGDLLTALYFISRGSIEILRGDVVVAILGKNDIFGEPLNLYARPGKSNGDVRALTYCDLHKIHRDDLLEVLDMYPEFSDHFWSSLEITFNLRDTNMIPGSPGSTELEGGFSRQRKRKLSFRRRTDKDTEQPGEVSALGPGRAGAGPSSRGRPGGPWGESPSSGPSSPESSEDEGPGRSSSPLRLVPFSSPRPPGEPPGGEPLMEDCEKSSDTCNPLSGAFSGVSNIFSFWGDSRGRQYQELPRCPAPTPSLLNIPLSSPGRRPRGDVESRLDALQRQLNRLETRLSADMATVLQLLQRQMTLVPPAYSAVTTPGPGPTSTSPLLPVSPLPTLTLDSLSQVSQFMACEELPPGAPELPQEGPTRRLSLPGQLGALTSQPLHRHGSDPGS
Lysophosphatidic acid receptor 5, sequence (Q9H1C0 whole entry): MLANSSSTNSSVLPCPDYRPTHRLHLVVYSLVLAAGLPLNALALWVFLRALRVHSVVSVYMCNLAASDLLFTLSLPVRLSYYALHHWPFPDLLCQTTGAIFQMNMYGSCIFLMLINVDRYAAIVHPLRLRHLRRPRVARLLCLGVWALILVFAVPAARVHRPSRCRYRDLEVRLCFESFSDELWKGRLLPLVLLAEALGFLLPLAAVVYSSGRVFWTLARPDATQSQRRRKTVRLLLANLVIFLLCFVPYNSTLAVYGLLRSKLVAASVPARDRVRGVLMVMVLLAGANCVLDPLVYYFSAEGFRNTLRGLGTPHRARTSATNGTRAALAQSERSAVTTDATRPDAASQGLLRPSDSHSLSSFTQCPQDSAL
Sphingosine 1-phosphate receptor 5, sequence (Q9H228 whole entry): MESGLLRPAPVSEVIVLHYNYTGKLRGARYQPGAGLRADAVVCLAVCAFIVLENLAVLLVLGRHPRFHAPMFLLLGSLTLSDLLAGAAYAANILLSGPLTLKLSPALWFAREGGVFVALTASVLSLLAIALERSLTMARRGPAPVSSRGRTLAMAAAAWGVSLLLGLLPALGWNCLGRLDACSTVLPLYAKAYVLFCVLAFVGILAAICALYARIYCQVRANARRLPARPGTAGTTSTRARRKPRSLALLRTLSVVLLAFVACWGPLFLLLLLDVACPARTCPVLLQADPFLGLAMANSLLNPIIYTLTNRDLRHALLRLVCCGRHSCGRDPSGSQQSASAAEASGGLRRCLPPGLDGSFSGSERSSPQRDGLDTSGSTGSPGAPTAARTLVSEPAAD
Lysophosphatidic acid receptor 1, sequence (Q92633 whole entry): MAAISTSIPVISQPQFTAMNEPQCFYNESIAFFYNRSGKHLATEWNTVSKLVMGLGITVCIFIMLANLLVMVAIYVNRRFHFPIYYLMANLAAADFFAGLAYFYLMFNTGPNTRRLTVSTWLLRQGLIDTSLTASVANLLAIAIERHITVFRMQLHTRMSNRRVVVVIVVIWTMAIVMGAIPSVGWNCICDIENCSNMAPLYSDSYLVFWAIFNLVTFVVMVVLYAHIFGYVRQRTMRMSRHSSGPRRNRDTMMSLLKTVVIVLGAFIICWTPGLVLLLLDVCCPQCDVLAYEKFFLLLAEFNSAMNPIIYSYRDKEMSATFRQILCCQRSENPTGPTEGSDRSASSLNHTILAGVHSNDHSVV
Voltage-gated inwardly rectifying potassium channel KCNH2, sequence (Q12809 whole entry): as the sequence (Q12809 whole entry) above

## C[C@@H](c1ccc2ccc(O[C@H]3CC[C@@H](C(F)(F)F)CC3)c(C(F)(F)F)c2c1)N1C2CCC1CC(C(=O)O)C2 (stereo partly specified)
[1]
  Activity: 92%
[2]
  Tmax: 3 h
[3]
  Activity: 89%
[4]
  concentration at 4 h: 0.097 µg/mL
[5]
  IC50: > 10 µM
[6]
  inhibition at 10 µM: 21.3%
[7]
  IC50: > 10 µM
[8]
  inhibition at 1 µM: 1.4%
[9]
  IC50: > 10 µM
[10]
  half-life: 3 h
[11]
  AUC(0-t) at 24 h: 6.17 µg·h/mL
[12]
  AUC(0-t) at 24 h: 12.2 µg·h/mL
[13]
  Activity: 61%
[14]
  Kp at 4 h: 0.2
[15]
  Vd: 2 L/kg
[16]
  Cmax: 0.813 µg/mL
[17]
  Cmax: 1.27 µg/mL
[18]
  solubility thermodynamic: 0.0732 mg/mL (≈ 135 µM)
[19]
  bioavailability: 51%
[20]
  AUC(0-t) at 24 h: 8.84 µg·h/mL
[21]
  AUC: 8.84 µg·h/mL
[22]
  Cmax: 0.823 µg/mL
[23]
  IC50: > 10 µM
[24]
  Tmax: 3 h
[25]
  Tmax: 4 h
[26]
  Cmax: 1.07 µg/mL
[27]
  IC50: 0.001 µM
[28]
  fCmax: 1.5 nM
[29]
  Fu: 0.45%
[30]
  Cmax: 0.376 µg/mL
[31]
  Vd: 2.4 L/kg
[32]
  Tmax: 1.6 h
[33]
  half-life: 14 h
[34]
  AUC(0-t) at 24 h: 0.594 µg·h/mL
[35]
  Cmax: 0.089 µg/mL
[36]
  IC50: > 10 µM
